The source of these data is patent EP4755888A1 (ILAb Co., Ltd., priority 2023, dated 2025).

This experiment concerns the target PD-1/PD-L1 (Homo sapiens, UniProt Q9NZQ7). The experiment can be described thus: TR-FRET PD-1/PD-L1 binding inhibition at the molecular level (free proteins). The following applies: Tag1-PD-L1 and Tag2-PD-1 proteins, twelve concentrations from 200 nM, 2 hours at room temperature, read-out: FRET assay (IC50). A digest of the protocol: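 HTRF read-out at 665/620 nm after 2 h at room temperature. Detection used anti-Tag1 Eu cryptate plus anti-Tag2 XL665 antibodies. Tagged PD-L1 and PD-1 proteins were pre-mixed with compound across twelve […] 1:2 dilutions starting at 200 nM.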
A general note: Time-resolved FRET reads energy transfer from a long-lived donor to a nearby acceptor.

Chain of PD-1/PD-L1 (Q9NZQ7 19-238 limits assumed): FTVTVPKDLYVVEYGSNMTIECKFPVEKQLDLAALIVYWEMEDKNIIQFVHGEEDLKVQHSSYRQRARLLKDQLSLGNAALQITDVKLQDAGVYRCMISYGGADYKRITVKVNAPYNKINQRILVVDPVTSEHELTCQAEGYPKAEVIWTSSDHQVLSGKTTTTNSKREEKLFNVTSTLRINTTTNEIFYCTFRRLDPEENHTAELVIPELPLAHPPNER

`O=C(Nc1cccc(-c2cccc(Nc3nc(C(F)F)nc4cc(CN5CC[C@@H](O)C5)cnc34)c2Cl)c1Cl)c1cc2n(n1)CCC[C@H]2N1CCC(O)CC1` [Compound 296, (R)-N-(2,2'-dichloro-3'-((2-(difluoromethyl)-7-(((R)-3-hydroxypyrrolidin-1-yl)methyl)pyrido[3,2-d]pyrimidin-4-yl)amino)-[1,1'-biphenyl]-3-yl)-4-(4-hydroxypiperidin-1-yl)-4,5,6,7-tetrahydropyrazolo[1,5-a]pyridine-2-carboxamide]: the concentration for half-maximal inhibition (IC50) fell in the range of 10 to 100 nM.

With `CC(C)c1nc(Nc2cccc(-c3cccc(NC(=O)c4cc5n(n4)CCC[C@@H]5N4CCC(C(=O)O)CC4)c3Cl)c2Cl)c2ncccc2n1` [Compound 297, (S)-1-(2-((2,2'-dichloro-3'-((2-isopropylpyrido[3,2-d]pyrimidin-4-yl)amino)-[1,1'-biphenyl]-3-yl)carbamoyl)-4,5,6,7-tetrahydropyrazolo[1,5-a]pyridin-4-yl)piperidine-4-carboxylic acid], the half-inhibitory concentration (IC50) was in the range of 100 to 1000 nM.

For the molecule `CC(C)c1nc(Nc2cccc(-c3cccc(NC(=O)c4cc5n(n4)CCC[C@@H]5NC(C)(C)C(=O)O)c3Cl)c2Cl)c2ncccc2n1` [Compound 299, (S)-2-((2-((2,2'-dichloro-3'-((2-isopropyl-pyrido[3,2-d]pyrimidin-4-yl)amino)-[1,1'-biphenyl]-3-yl)carbamoyl)-4,5,6,7-tetrahydropyrazolo[1,5-a]pyridin-4-yl)amino)-2-methylpropanoic acid], the concentration for half-maximal inhibition (IC50) lay in the range of 10 to 100 nM.

Turning to `CC(C)c1nc(Nc2cccc(-c3cccc(NC(=O)c4cc5n(n4)CCC[C@@H]5N4CC(C(=O)O)C4)c3Cl)c2Cl)c2ncccc2n1` [Compound 301, (S)-1-(2-((2,2'-dichloro-3'-((2-isopropyl-pyrido[3,2-d]pyrimidin-4-yl)amino)-[1,1'-biphenyl]-3-yl)carbamoyl)-4,5,6,7-tetrahydropyrazolo[1,5-a]pyridin-4-yl)azetidine-3-carboxylic acid], the IC50 is 100 to 1000 nM.

For `CC(C)c1nc(Nc2cccc(-c3cccc(NC(=O)c4cc5n(n4)CCC[C@H]5N4CC(C(=O)O)C4)c3Cl)c2Cl)c2ncccc2n1` [Compound 302, (R)-1-(2-((2,2'-dichloro-3'-((2-isopropyl-pyrido[3,2-d]pyrimidin-4-yl)amino)-[1,1'-biphenyl]-3-yl)carbamoyl)-4,5,6,7-tetrahydropyrazolo[1,5-a]pyridin-4-yl)azetidine-3-carboxylic acid], the IC50 was 10 to 100 nM.

In the case of `O=C(Nc1cccc(-c2cccc(Nc3nc(C(F)(F)F)nc4cccnc34)c2Cl)c1Cl)c1cc2n(n1)CCC[C@@H]2N1CCC(O)CC1` [Compound 303, (S)-N-(2,2'-dichloro-3'-((2-(trifluoromethyl)pyrido[3,2-d]pyrimidin-4-yl)amino)-[1,1'-biphenyl]-3-yl)-4-(4-hydroxypiperidin-1-yl)-4,5,6,7-tetrahydropyrazolo[1,5-a]pyridine-2-carboxamide], the IC50 was in the range of 10 to 100 nM.

Turning to `O=C(Nc1cccc(-c2cccc(Nc3nc(C(F)(F)F)nc4cccnc34)c2Cl)c1Cl)c1cc2n(n1)CCC[C@H]2N1CCC(O)CC1` [Compound 304, (R)-N-(2,2'-dichloro-3'-((2-(trifluoromethyl)pyrido[3,2-d]pyrimidin-4-yl)amino)-[1,1'-biphenyl]-3-yl)-4-(4-hydroxypiperidin-1-yl)-4,5,6,7-tetrahydropyrazolo[1,5-a]pyridine-2-carboxamide], the concentration for half-maximal inhibition (IC50) fell in the range of 10 to 100 nM.

On to `O=C(Nc1cccc(-c2cccc(Nc3nc(C(F)F)nc4cccnc34)c2Cl)c1Cl)c1cc2n(n1)CCC[C@@H]2N1CCC(O)CC1` [Compound 305, (S)-N-(2,2'-dichloro-3'-((2-(difluoromethyl)pyrido[3,2-d]pyrimidin-4-yl)amino)-[1,1'-biphenyl]-3-yl)-4-(4-hydroxypiperidin-1-yl)-4,5,6,7-tetrahydropyrazolo[1,5-a]pyridine-2-carboxamide], for which the concentration for half-maximal inhibition (IC50) lay within 10 to 100 nM.

One may read the IC50 as the concentration needed to halve the response being measured.
